Active and inactive are the calls of the source. The calls are words filed in the database; no cut-off is given here.

Broadly, the MIC is the lowest concentration that inhibits growth of the organism.

The subject of experiment [1] is Staphylococcus aureus. Put plainly: Minimum inhibitory concentration, that inhibits growth of Staphylococcus aureus in the presence of subinhibitory (30 ug/mL) Berberine. The class given is functional.
In experiment [2] the test system is Staphylococcus aureus. In words: Minimum inhibitory concentration, that inhibits growth of Staphylococcus aureus in the presence of subinhibitory (30 ug/mL) Berberine; Inactive. It is filed as functional, organism-based.
For experiment [3], the system named is Staphylococcus aureus. In words: Minimum inhibitory concentration, that inhibits growth of Staphylococcus aureus in the presence of subinhibitory (30 ug/mL) Berberine Inactive. It is filed as functional, organism-based.

Take `COc1cc([C@H]2Oc3cc([C@@H]4CC(=O)c5c(OC(C)=O)cc(OC(C)=O)cc5O4)ccc3O[C@@H]2COC(C)=O)ccc1OC(C)=O`: in experiment [1], the MIC is 1.6 µg/mL.

Consider `O=c1cc(-c2ccc(O)cc2)oc2ccccc12`, for which the IA entry in experiment [2] was “inactive”.

Turning to `COc1ccc(-c2cc(=O)c3c(O)cc(O)cc3o2)cc1O` [DIOSMETIN], the MIC in experiment [1] turned out to be 15 µg/mL.

Turning to `COc1cc([C@H]2Oc3cc(-c4cc(=O)c5c(O)cc(O)cc5o4)ccc3O[C@@H]2CO)cc(OC)c1O`, the minimum inhibitory concentration (MIC) in experiment [1] was determined as 8 µg/mL.

As to `COc1ccc(-c2cc(=O)c3ccccc3o2)cc1` [4'-METHOXYFLAVONE], the minimal inhibitory concentration (MIC) in experiment [1] was 6.3 µg/mL.

In the case of `CCOc1ccc(-c2cc(=O)c3ccccc3o2)cc1`, the MIC in experiment [1] came out at 1.6 µg/mL.

As to `COc1ccc(-c2cc(=O)c3ccccc3o2)cc1OC` [3',4'-DIMETHOXYFLAVONE], in experiment [1], the MIC worked out at 6.3 µg/mL.

As to `COc1cc([C@H]2Oc3cc(-c4cc(=O)c5c(OC(C)=O)cc(OC(C)=O)cc5o4)ccc3O[C@@H]2COC(C)=O)ccc1OC(C)=O`, the MIC in experiment [1] came out at 0.1 µg/mL.

`COc1cc([C@H]2Oc3cc([C@@H]4CC(=O)c5c(O)cc(O)cc5O4)ccc3O[C@@H]2CO)ccc1O`: in experiment [1], the MIC is 3.1 µg/mL.

On to `O=c1cc(-c2ccccc2)oc2cc(O)cc(O)c12` [CHRYSIN], for which the MIC in experiment [1] turned out to be 25 µg/mL.

Consider `O=c1cc(-c2ccccc2)oc2c(O)c(O)ccc12`, for which the IA entry in experiment [2] is “inactive”.

Turning to `COc1cc([C@@H]2Oc3ccc4c(=O)cc(-c5ccccc5)oc4c3O[C@H]2CO)ccc1O`, the minimal inhibitory concentration (MIC) in experiment [1] turned out to be 1.9 µg/mL.

In the case of `COc1cc([C@H]2Oc3cc(-c4oc5cc(O)ccc5c(=O)c4O)ccc3O[C@@H]2CO)ccc1O`, the MIC in experiment [1] was found to be 163 µg/mL.

In the case of `COc1cc([C@H]2Oc3cc([C@@H]4CC(=O)c5c(O)cc(O)cc5O4)cc(OC)c3O[C@@H]2CO)ccc1O`, the MIC in experiment [1] was 1.9 µg/mL.

Take `COc1cc([C@H]2Oc3cc([C@H]4Oc5cc(O)cc(O)c5C(=O)[C@@H]4O)ccc3O[C@@H]2CO)ccc1O` [SILYBIN A]: the MIC in experiment [1] turned out to be 12.5 µg/mL.

As to `COc1cc([C@H]2Oc3ccc(-c4cc(=O)c5c(O)cc(O)cc5o4)cc3O[C@@H]2CO)ccc1O`, the MIC in experiment [1] came out at 3.1 µg/mL.

For the compound `COc1cc(OC)c2c(=O)cc(-c3ccccc3)oc2c1` [CHRYSIN DIMETHYL ETHER], the MIC in experiment [1] came out at 25 µg/mL.

Consider `O=c1cc(-c2ccc(O)c(O)c2)oc2cc(O)ccc12`, for which the IA result in experiment [2] was “inactive”.

On to `COc1cc([C@H]2Oc3cc(-c4cc(=O)c5c(O)cc(O)cc5o4)ccc3O[C@@H]2CO)ccc1O` [HYDNOCARPIN], for which, in experiment [1], the MIC amounted to 0.1 µg/mL.

Regarding `COc1cc([C@H]2Oc3cc(-c4oc5cc(OC(C)=O)cc(OC(C)=O)c5c(=O)c4OC(C)=O)ccc3O[C@@H]2COC(C)=O)ccc1OC(C)=O`, the IA entry in experiment [3] was “inactive”.

Turning to `COc1cc(OC)c2c(=O)cc(-c3ccc(OC)c(OC)c3)oc2c1`, the IA entry in experiment [2] was “inactive”.

With `CCCOc1ccc(-c2cc(=O)c3ccccc3o2)cc1`, the minimal inhibitory concentration (MIC) in experiment [1] came to 0.4 µg/mL.

In the case of `COc1cc([C@H]2Oc3cc(-c4oc5cc(O)cc(O)c5c(=O)c4O)ccc3O[C@@H]2CO)ccc1O`, in experiment [2], the IA entry was “inactive”.

`COc1cc([C@H]2Oc3cc(-c4cc(=O)c5ccccc5o4)ccc3O[C@@H]2CO)ccc1O`: the MIC in experiment [1] came out at 0.08 µg/mL.

On to `COc1cc([C@H]2Oc3cc(-c4cc(=O)c5c(O)cc(O)cc5o4)cc(OC)c3O[C@@H]2CO)ccc1O`, for which the MIC in experiment [1] came to 2 µg/mL.

For the compound `COc1cc([C@H]2Oc3ccc(-c4cc(=O)c5c(O)cc(O)cc5o4)cc3O[C@@H]2CO)cc(OC)c1O`, in experiment [1], the MIC was found to be 7.8 µg/mL.

Regarding `COc1cc([C@H]2Oc3cc(-c4cc(=O)c5ccc(OC(C)=O)cc5o4)ccc3O[C@@H]2COC(C)=O)ccc1OC(C)=O`, the MIC in experiment [1] worked out at 1.6 µg/mL.

With `O=c1c(O)c(-c2ccc(O)c(O)c2)oc2cc(O)cc(O)c12`, the IA result in experiment [2] was “inactive”.

As to `CC(=O)Oc1cc(OC(C)=O)c2c(=O)cc(-c3ccc(OC(C)=O)c(OC(C)=O)c3)oc2c1`, the IA result in experiment [2] is “inactive”.

Take `O=c1cc(-c2ccc(O)c(O)c2)oc2cc(O)cc(O)c12`: in experiment [2], the IA entry was “inactive”.

On to `C=CCOc1ccc(-c2cc(=O)c3ccccc3o2)cc1`, for which the MIC in experiment [1] worked out at 6.3 µg/mL.

In the case of `O=c1cc(-c2ccc(OCc3ccccc3)cc2)oc2ccccc12`, in experiment [2], the IA result was “inactive”.

For the compound `CC(C)Oc1ccc(-c2cc(=O)c3ccccc3o2)cc1`, the MIC in experiment [1] was 1.9 µg/mL.

As for `CCCCCCCCCOc1ccc(-c2cc(=O)c3ccccc3o2)cc1`, the IA entry in experiment [2] was “inactive”.

Regarding `COc1cc([C@H]2Oc3cc(-c4cc(=O)c5ccc(O)cc5o4)ccc3O[C@@H]2CO)ccc1O`, the MIC in experiment [1] is 0.8 µg/mL.

With `O=c1cc(-c2ccc(O)cc2)oc2c(O)c(O)ccc12`, the IA result in experiment [2] was “inactive”.

`O=c1cc(-c2ccc(OCCO)cc2)oc2ccccc12`: the MIC in experiment [1] was determined as 25 µg/mL.

For the compound `CC(=O)Oc1ccc2c(=O)cc(-c3ccc(OC(C)=O)c(OC(C)=O)c3)oc2c1`, in experiment [2], the IA entry was “inactive”.

Take `O=c1cc(-c2ccc3c(c2)O[C@H](c2ccc(O)cc2)[C@@H](CO)O3)oc2cc(O)cc(O)c12`: the IA entry in experiment [2] is “inactive”.

On to `COc1cc([C@@H]2Oc3ccc4c(=O)cc(-c5ccc(O)cc5)oc4c3O[C@H]2CO)ccc1O`, for which the MIC in experiment [1] is 0.6 µg/mL.

The values above are taken from ChEMBL document CHEMBL1134610, “Flavonolignan and flavone inhibitors of a Staphylococcus aureus multidrug resistance pump: structure-activity relationships” (2001).
